Data set [1] deals with Rattus norvegicus. The data set is described as follows: Antinociceptive activity in Sprague-Dawley rat model of chronic constriction injury-induced neuropathic pain assessed as reduction in paw withdrawal latency at 100 mg/kg, po by Von Frey test. The class given is functional, organism-based.
The subject of data set [2] is Rattus norvegicus. The data set is described as follows: Antinociceptive activity in Sprague-Dawley rat model of chronic constriction injury-induced neuropathic pain assessed as reduction in thermal hyperalgesia 100 mg/kg, po by Von Frey test relative to control. In kind it is functional. Also on record: scale not given: the % may be the effect or the level left.
The test system of data set [3] is Rattus norvegicus. The data set is described as follows: Antinociceptive activity in Sprague-Dawley rat model of chronic constriction injury-induced neuropathic pain assessed as reduction in mechanical hyperalgesia 100 mg/kg, po by Von Frey test relative to control. In kind it is functional. Also on record: scale not given: the % may be the effect or the level left.

The test system of data set [4] is Rattus norvegicus. The data set is described as follows: Reversal of chronic constriction injury-induced cold allodynia in Sprague-Dawley rat model of neuropathic pain at 100 mg/kg, po measured up to 180 mins relative to control. The class given is functional. The conditions noted are these: time min <=180.
Data set [5] deals with Rattus norvegicus. The data set is described as follows: Reversal of chronic constriction injury-induced mechanical allodynia in Sprague-Dawley rat model of neuropathic pain at 100 mg/kg, sc measured up to 180 mins relative to control. The class given is functional. The conditions noted are these: time min <=180.
Data set [6] is described as follows: Induction of motor coordination impairment in Sprague-Dawley rat at 100 mg/kg, po measured up to 180 mins by rotarod test. In kind it is organism-based. The conditions noted are these: in vivo, 3 h.
Data set [7] is described as follows: Toxicity in Sprague-Dawley rat assessed as drowsiness at 100 mg/kg, po. In kind it is organism-based. Particulars: in vivo.
The nature of data set [8]: Toxicity in Sprague-Dawley rat assessed as dizziness at 100 mg/kg, po. The class given is organism-based. Particulars: in vivo.
Data set [9] in a line: Toxicity in Sprague-Dawley rat assessed as unsteadiness at 100 mg/kg, po. The class given is organism-based. The conditions noted are these: in vivo.
A short description of data set [10]: Permeability of the compound across basolateral to apical membrane in human Caco-2 cells incubated for 2 hrs by LC-MS/MS analysis. In kind it is ADME, cell-based. The conditions noted are these: Caco-2, read-out: permeability.
Data set [11] is described as follows: Permeability of the compound across apical to basolateral membrane in human Caco-2 cells incubated for 2 hrs by LC-MS/MS analysis.
The target in data set [12] is T1, AP2-associated protein kinase 1 (Homo sapiens, UniProt Q2M2I8). The data set is described as follows: Inhibition of recombinant GST-Xa-tagged human AAK1 (30 to 330 residues) using 5-FAM-labelled Alla-KEEQSQITSQVTGQIGWR-NH2 peptide as substrate incubated for 3 hrs in presence of ATP by electrophoretic analysis.
The nature of data set [13]: Metabolic stability in human liver microsomes assessed as parent compound remaining at 0.5 uM incubated for 10 mins in presence of NADPH by LC-MS/MS analysis. In kind it is ADME, Microsome. Particulars: read-out: Stability.
Data set [14] in a line: Metabolic stability in rat liver microsomes assessed as parent compound remaining at 0.5 uM incubated for 10 mins in presence of NADPH by LC-MS/MS analysis. In kind it is ADME, Microsome. The conditions noted are these: read-out: Stability.
Data set [15] in a line: Metabolic stability in mouse liver microsomes assessed as parent compound remaining at 0.5 uM incubated for 10 mins in presence of NADPH by LC-MS/MS analysis. The conditions noted are these: read-out: Stability. In kind it is ADME, Microsome.
The target in data set [16] is T1, AP2-associated protein kinase 1. The data set is described as follows: Inhibition of human AAK1 expressed in HEK293 cells assessed as suppression of AP2 phosphorylation measured after 3 hrs by Western blot analysis. The class given is cell-based.
Data set [17] in a line: Permeability of the compound at pH 5.5 incubated for 4 hrs by PAMPA-based UV spectrophotometry. The class given is ADME. Particulars: read-out: permeability.
A short description of data set [18]: Permeability of the compound at pH 7.4 incubated for 4 hrs by PAMPA-based UV spectrophotometry. In kind it is ADME. Particulars: for Papp at 4 h: PAMPA, pH 7.4, read-out: permeability.
A short description of data set [19]: Protein binding in human plasma assessed as unbound fraction at 10 uM measured after 5 hrs by equilibrium dialysis method.
Data set [20] can be described thus: Protein binding in rat plasma assessed as unbound fraction at 10 uM measured after 5 hrs by equilibrium dialysis method.
A short description of data set [21]: Protein binding in mouse plasma assessed as unbound fraction at 10 uM measured after 5 hrs by equilibrium dialysis method.
The target in data set [22] is T1, AP2-associated protein kinase 1. The data set is described as follows: Inhibition of AAK1 (unknown origin).
Data set [23] can be described thus: Efflux ratio of permeability across basolateral to apical membrane over apical to basolateral membrane in human Caco-2 cells.
Data set [24] can be described thus: Drug concentration in C57BL6 mouse plasma at 30 mg/kg, sc measured after 2 hrs by LC-MS/MS analysis. The class given is ADME, organism-based.
Data set [25] in a line: Drug concentration in C57BL6 mouse brain at 30 mg/kg, sc measured after 2 hrs by LC-MS/MS analysis. In kind it is ADME, organism-based. Particulars: read-out: Ct.
The nature of data set [26]: Ratio of drug concentration in brain to plasma in C57BL6 mouse at […], sc. The class given is ADME. Particulars: read-out: BPR.

From ChEMBL document CHEMBL4828715, “Discovery, Structure-Activity Relationships, and In Vivo Evaluation of Novel Aryl Amides as Brain Penetrant Adaptor Protein 2-Associated Kinase 1 (AAK1) Inhibitors for the Treatment of Neuropathic Pain” (J Med Chem, 2021) come the findings set out here.

Active and inactive are the calls of the source. No cut-off for these calls is given here.

T1 sequence (Q2M2I8 whole entry, the tested form may be a part): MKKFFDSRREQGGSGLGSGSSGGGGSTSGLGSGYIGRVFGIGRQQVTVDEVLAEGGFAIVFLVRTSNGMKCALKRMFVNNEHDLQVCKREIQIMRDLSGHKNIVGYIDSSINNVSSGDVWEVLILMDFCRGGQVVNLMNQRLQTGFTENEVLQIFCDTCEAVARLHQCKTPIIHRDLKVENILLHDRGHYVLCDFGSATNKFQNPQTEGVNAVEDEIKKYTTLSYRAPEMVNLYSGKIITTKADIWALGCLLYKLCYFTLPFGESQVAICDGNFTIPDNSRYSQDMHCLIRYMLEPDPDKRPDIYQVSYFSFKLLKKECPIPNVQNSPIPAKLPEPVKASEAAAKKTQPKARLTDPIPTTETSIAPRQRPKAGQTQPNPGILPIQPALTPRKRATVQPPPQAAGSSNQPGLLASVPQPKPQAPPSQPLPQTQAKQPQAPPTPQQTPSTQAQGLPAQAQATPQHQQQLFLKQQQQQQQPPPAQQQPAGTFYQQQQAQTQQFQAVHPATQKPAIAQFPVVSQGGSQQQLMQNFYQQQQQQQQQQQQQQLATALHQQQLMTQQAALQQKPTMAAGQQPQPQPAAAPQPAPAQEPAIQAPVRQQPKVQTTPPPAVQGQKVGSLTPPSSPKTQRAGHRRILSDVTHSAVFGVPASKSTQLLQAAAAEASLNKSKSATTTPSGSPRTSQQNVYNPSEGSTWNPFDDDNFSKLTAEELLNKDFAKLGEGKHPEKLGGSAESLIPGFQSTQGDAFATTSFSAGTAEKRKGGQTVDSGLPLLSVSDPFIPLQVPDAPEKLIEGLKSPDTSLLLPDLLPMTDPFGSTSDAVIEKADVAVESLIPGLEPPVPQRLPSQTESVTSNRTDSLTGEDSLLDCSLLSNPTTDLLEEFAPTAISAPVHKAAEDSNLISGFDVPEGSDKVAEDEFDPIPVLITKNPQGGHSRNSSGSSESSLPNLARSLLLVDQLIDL

Regarding `NCC1(CC(=O)O)CCCCC1` [GABAPENTIN], the result in data set [1] was Active. For the same molecule, the Activity is on record as 89% in [2]; 32% in [3]; 54% in [4]; 34% in [5]; “Toxic” in data set [6]; “Toxic” in data set [7]. In addition, the Activity entry in [8] and in data set [9] was “Toxic” in each case.

As to `C[C@H]1O[C@@H](O[C@H]2[C@@H](O)C[C@H](O[C@H]3[C@@H](O)C[C@H](O[C@H]4CC[C@@]5(C)[C@H](CC[C@@H]6[C@@H]5C[C@@H](O)[C@]5(C)[C@@H](C7=CC(=O)OC7)CC[C@]65O)C4)O[C@@H]3C)O[C@@H]2C)C[C@H](O)[C@@H]1O` [DIGOXIN], the Papp B→A at 2 h in data set [10] was 10 ×10⁻⁶ cm/s.

With `COc1cc(NC(=O)[C@@H]2NCCC[C@@H]2C(C)C)ccc1-c1cnco1`, the Papp B→A at 2 h in data set [10] was found to be 11.9 ×10⁻⁶ cm/s. For the same molecule, the Papp A→B at 2 h in [11] worked out at 16.7 ×10⁻⁶ cm/s. Moreover, the figures for the IC50 in [12] and in [16] were 10 nM and 105 nM, respectively. The remaining at 10 min, 0.5 µM is 60% in [13], 42% in [14] and 2% in data set [15]. The Papp at 4 h in [17] is 47.1 ×10⁻⁶ cm/s; in data set [18], 43.5 ×10⁻⁶ cm/s. Also, the unbound share (fraction unbound) at 5 h, 10 µM in data set [19] turned out to be 0.19; in [20], 0.059; in data set [21], 0.028.

In data set [22], `Cc1nccc2c1c(=O)n(C)c1cc(OC[C@@H](N)CC(C)C)c(C#N)cc21` gave an IC50 of 0.7 nM.

Turning to `COc1cc(NC(=O)[C@H](N)CC(C)C)ccc1-c1cn[nH]c1`, in [10], the Papp B→A at 2 h is 14.9 ×10⁻⁶ cm/s. Further, in data set [11], the apparent permeability from apical to basolateral (Papp A→B) at 2 h turned out to be 4 ×10⁻⁶ cm/s. The IC50 turned out to be 15 nM in data set [12] and 190 nM in data set [16]. In addition, the figures for the remaining at 10 min, 0.5 µM in data set [13], in [14] and in data set [15] were 85%, 74% and 34%, respectively. Moreover, the fraction unbound at 5 h, 10 µM was 0.18 in data set [19], 0.1 in data set [20] and 0.2 in [21]. Moreover, in data set [23], the efflux ratio worked out at 3.3. In addition, the concentration at 2 h is 29.9 µM in data set [24] and 5.7 µM in data set [25]. In data set [26], the Kp came out at 0.21.

On to `COc1cc(NC(=O)[C@H](N)CC(C)C)ccc1-c1cnco1`, for which the Papp B→A at 2 h in [10] came out at 15.1 ×10⁻⁶ cm/s. In data set [11], this molecule gave a Papp A→B at 2 h of 13.7 ×10⁻⁶ cm/s. For the same molecule, the IC50 in data set [12] turned out to be 12 nM; in data set [16], 60 nM. Further, the remaining at 10 min, 0.5 µM is 89% in [13], 75% in [14] and 64% in data set [15]. Besides, the Papp at 4 h in data set [17] was 56.9 ×10⁻⁶ cm/s; in data set [18], 58.4 ×10⁻⁶ cm/s. Moreover, the fraction unbound at 5 h, 10 µM in [19] came out at 0.063; in data set [20], 0.023; in [21], 0.086. For the same molecule, the concentration at 2 h in data set [24] came to 7.3 µM; in data set [25] it was 6.8 µM. In [26], the Kp amounted to 1.17.

As to `CC(C(=O)O)c1cccc(C(=O)c2ccccc2)c1` (stereo unspecified) [KETOPROFEN], the figures for the Papp at 4 h in data set [17] and in [18] were 34.2 ×10⁻⁶ cm/s and 1.1 ×10⁻⁶ cm/s, respectively.

`COCCc1ccc(OCC(O)CNC(C)C)cc1` (stereo unspecified) [METOPROLOL]: the Papp at 4 h in data set [17] was determined as 10.2 ×10⁻⁶ cm/s. For the same molecule, in data set [18] (pampa, pH 7.4, 4 h), the permeability was 83.5 10^-6 cm/s.
